Results taken from PubChem BioAssay (NCI).
Where “and” joins values, the source holds several entries; their conditions need not be identical. Identical values can stand only once.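 Test compounds were applied to cells in 96-well plates for 48 hours at 5 doses. GI50 = concentration required for 50% inhibition of growth. The concentration for full growth arrest is given as TGI.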

Experiments:
Assay in all cases: DTP human tumour cell line panel, 48 h
[1] = tested on: 786-0 renal
[2] = tested on: SW-620 colon
[3] = tested on: U251 CNS
[4] = tested on: EKVX NSCLC
[5] = tested on: A549 NSCLC
[6] = tested on: T-47D breast
[7] = tested on: HOP-92 NSCLC
[8] = tested on: MDA-MB-231 breast
[9] = tested on: DU-145 prostate
[10] = tested on: BT-549 breast

| Structure (SMILES) | TGI [1] | TGI [2] | TGI [3] | TGI [4] | TGI [5] | TGI [6] | TGI [7] | TGI [8] | TGI [9] | TGI [10] | GI50 [6] | GI50 [2] | GI50 [3] | GI50 [8] | GI50 [10] | GI50 [4] | GI50 [5] | GI50 [9] | GI50 [7] |
| --- | --- | --- | --- | --- | --- | --- | --- | --- | --- | --- | --- | --- | --- | --- | --- | --- | --- | --- | --- |
| CC(=O)O[C@]12CCCCCC1C1(O)C(O)CCC[C@H]12 (stereo not given in full) | > 100 µM | > 100 µM | > 100 µM | > 100 µM | > 100 µM |  |  |  |  |  |  |  |  |  |  |  |  |  |  |
| COC(=O)c1c2c(cc3c1CC1(C3)Cc3cc4c(c(C(=O)OC)c3C1)CCCC4)CCCC2 | > 100 µM |  | > 100 µM | > 100 µM | > 100 µM | > 100 µM | > 100 µM | > 100 µM |  |  |  |  |  |  |  |  |  |  |  |
| O=C(c1cc2ccccc2cc1O)N1CCCCC1 | > 100 µM | > 100 µM | > 100 µM | 78.1 µM |  | > 100 µM | 43.3 µM | > 100 µM | > 100 µM | 84.2 µM |  |  |  |  |  |  |  |  |  |
| COc1cc([N+](=O)[O-])c(OC)cc1-c1nc2sc(Cl)cn2c1/C=N/Nc1ccccn1 |  | > 50 µM | 14.3 µM | > 50 µM | > 50 µM | > 50 µM |  | 30.7 µM |  | 38.7 µM | 20.6 µM | > 50 µM | 7.65 µM | 8.61 µM | 15.5 µM | > 50 µM | > 50 µM |  |  |
| CC[C@H]1CN2CCc3cc(OC)c(OC)cc3[C@@H]2C[C@@H]1C[C@H]1NCCc2cc(OC)c(OC)cc21 | 0.0621 µM and 0.248 µM |  |  | 0.151 µM and 0.144 µM |  | 0.0887 µM | 0.196 µM and 0.0779 µM | 0.0458 µM | 0.0643 µM | 0.658 µM |  |  |  |  |  |  |  |  |  |
| O=c1ccc2cc3ccc4cccc5ccc(c2o1)c3c45 |  | > 100 µM | 31.1 µM | > 100 µM |  |  | > 100 µM |  |  |  |  |  |  |  |  |  |  |  |  |
| Cc1c2c(n(CCc3ccc(Cl)cc3)c1C)NN=C(C#N)S2(=O)=O | > 100 µM | > 100 µM | > 100 µM | > 100 µM | > 100 µM | > 100 µM |  | > 100 µM | > 100 µM |  |  |  |  |  |  |  |  |  |  |
| O=C(CNc1ccccc1Cl)Nn1c(-c2ccccc2)nc2ccccc2c1=O | 40.2 µM | 39.7 µM | 33 µM | 36.8 µM | > 100 µM |  | 29.4 µM | > 10 µM | > 100 µM | 25.5 µM |  |  |  |  |  |  |  |  |  |
| COc1ccc2cc(-c3ccc(-c4ccc(C(=N)N)s4)s3)ccc2c1 |  | 3.81 µM |  | 6.1 µM |  | 4.01 µM |  | 5.42 µM | 3.32 µM | 38.5 µM | 1.79 µM | 1.91 µM |  | 2.46 µM | 17.6 µM | 2.14 µM |  | 1.7 µM |  |
| O=C(CCCN1CCC2(CC1)CC(=O)N(N1CCOCC1)C2=O)c1ccccc1 | > 100 µM | > 100 µM | > 100 µM | > 100 µM | > 100 µM | > 100 µM |  | > 100 µM | > 100 µM | 27.9 µM |  |  |  |  |  |  |  |  |  |
| CCN(CCO)CC1COc2ccccc2O1 (stereo not given) | > 100 µM |  | > 100 µM | > 100 µM | > 100 µM | > 100 µM | > 100 µM | > 100 µM | > 100 µM | > 100 µM |  |  |  |  |  |  |  |  |  |
| COc1ccc2cc3c4cc5c(cc4cc[n+]3cc2c1OC)OCO5 | > 100 µM | > 62.2 µM | 15.3 µM | > 100 µM | > 100 µM | > 100 µM | > 90.4 µM | > 100 µM | > 100 µM | 7.83 µM |  |  |  |  |  |  |  |  |  |
| Oc1ccccc1/C=N/c1nc2cc3sc(/N=C/c4ccccc4O)nc3cc2s1 | > 100 µM | > 100 µM | > 100 µM | > 100 µM | > 100 µM | > 100 µM | > 100 µM | > 100 µM | > 100 µM | > 100 µM |  |  |  |  |  |  |  |  |  |
| C(=N\NC1=NCCCN1)/c1ccc2ccccc2c1 | 24.2 µM | 28.4 µM | 19.8 µM | 32.8 µM | 22.4 µM | 33 µM | 25.1 µM | 20 µM | 24.2 µM | 32.5 µM |  |  |  |  |  |  |  |  |  |
| COc1cc(NS(C)(=O)=O)ccc1N1Cc2cnc3ccc4[nH]c(C)cc1c4c23 | 36.5 µM | > 100 µM | > 100 µM | > 100 µM | > 100 µM |  | > 100 µM | > 100 µM | > 100 µM | > 100 µM |  |  |  |  |  |  |  |  |  |
| COc1cc2c(cc1-c1c(C)noc1C)cc(C)c(=O)n2Cc1ccccn1 |  | > 100 µM | > 100 µM | > 100 µM | > 100 µM | > 100 µM | 25.3 µM | > 100 µM | > 100 µM | > 100 µM | 0.456 µM | 2.59 µM | 4.43 µM | 0.809 µM | 3.89 µM | 1.67 µM | 1.76 µM | 12.6 µM | 0.473 µM |
| COc1ccc(C(OCC2OC(n3cc(C)c(=O)[nH]c3=O)CC2n2cc(Cn3cc(F)c(=O)[nH]c3=O)nn2)(c2ccccc2)c2ccccc2)cc1 (stereo not given) | 21.7 µM | 21.4 µM | 21.2 µM | 23.3 µM | > 100 µM | 24.4 µM | 19.5 µM | 7.7 µM | 27.1 µM | 28.8 µM |  |  |  |  |  |  |  |  |  |
| BrC/C=C/C[P+](c1ccccc1)(c1ccccc1)c1ccccc1 | > 100 µM | > 100 µM | 87 µM |  | > 100 µM |  | 36.1 µM |  |  |  |  |  |  |  |  |  |  |  |  |
| c1ccc2sc(SCSc3nc4ccccc4s3)nc2c1 | > 100 µM | > 100 µM | > 100 µM | > 100 µM | > 100 µM | > 100 µM | > 100 µM | > 100 µM | > 100 µM | > 100 µM |  |  |  |  |  |  |  |  |  |
| CC(O)C1CC1(CO)CNc1cc(Cl)nc(N)n1 (stereo not given) | > 100 µM | > 100 µM | > 100 µM | > 100 µM | > 100 µM | > 100 µM | > 100 µM | > 100 µM | > 100 µM | > 100 µM |  |  |  |  |  |  |  |  |  |
| C1=CC2=CC=CC3c4nc5ccc6ccccc6c5nc4C(=C1)C23 (stereo not given) | > 100 µM | > 100 µM | > 100 µM | > 100 µM | > 100 µM | > 100 µM | > 100 µM | > 100 µM | > 100 µM |  |  |  |  |  |  |  |  |  |  |
| O=C1C=CC(=O)N1Nc1ccc([N+](=O)[O-])cc1[N+](=O)[O-] | > 100 µM | > 100 µM | > 100 µM | > 100 µM | > 100 µM |  | > 77 µM |  |  |  |  |  |  |  |  |  |  |  |  |
